# Measured values: paper doi:10.1101/2023.08.03.551817v2 (biorxiv, 2024)
# Columns and labels:
# Test in all cases: two-electrode voltage clamp, Xenopus oocytes
# [1] = target: T1, GluN1/GluN2A NMDA receptor (channel pore) (Rattus norvegicus, UniProt P35439+Q00959); format: cell-based; conditions: glycine and glutamate present; pH 7.3; -60 mV; open-channel block kinetics
# T1 construct: gene Grin1; pcDNA3.1 inserts; mRNA-injected Xenopus laevis oocytes; hetero-tetramer
# AKDF^19383 [2] = test system: T2, AKDF^19383; format: cell-based, Trichoplax adhaerens; conditions: inhibition of constitutive current; pH 7.5; -80 mV
# T2 construct: gene TRIADDRAFT_19383; codon-optimized, modified pSP64-poly(A); Xenopus laevis oocytes; homo-tetramer
# AKDF^19383 [3] = test system: T2, AKDF^19383; format: cell-based, Trichoplax adhaerens; conditions: pH 7.5; -80 mV; agonist
# [4] = target: T3, GluN1/GluN2A NMDA receptor (GluN1 ligand-binding site) (Rattus norvegicus, UniProt P35439); format: cell-based
# T3 construct: gene Grin1; pcDNA3.1 inserts; mRNA-injected Xenopus laevis oocytes; hetero-tetramer
# [5] = target: T4, GluN1/GluN2A NMDA receptor (GluN1 ligand-binding site) (Rattus norvegicus, UniProt P35439, D732L); format: cell-based
# T4 construct: gene Grin1; pcDNA3.1 inserts; mRNA-injected Xenopus laevis oocytes; hetero-tetramer
smiles,measurement,setting,value
C[C@]12N[C@H](Cc3ccccc31)c1ccccc12 [MK-801],"two-electrode voltage clamp, Xenopus oocytes",[1],very similar kinetics of inhibition of WT and mutant receptors (Fig. 3A)
C[C@H](N)C(=O)O [alanine],% inhibition at 10 mM,AKDF^19383 [2],~ 50%
N[C@H](CO)C(=O)O [D-serine],EC50,AKDF^19383 [3],490 ± 120 µM
same,% inhibition at 10 mM,AKDF^19383 [2],~ 50%
"O=C(O)c1cc(O)c2c(Cl)cc(Cl)cc2n1 [5,7-dichlorokynurenic acid]",IC50,[4],24.9 ± 5.2 µM
same,IC50,[5],0.44 ± 0.12 µM
NCC(=O)O [glycine],% inhibition at 10 mM,AKDF^19383 [2],~ 50%
